Compound | melting point [°C]
Cc1cccc(-c2cccc(-c3nc(C)cc(Cl)n3)n2)c1 | 105
OCc1ccccc1NC1CCN(Cc2ccccc2)CC1 | 164 to 168
CC(=O)CCc1ccc2c(c1)COc1ccc(OCc3ccc4cc(F)c(Cl)cc4n3)cc1C2SCCC(=O)O (stereo not given) | 115 to 118
CCC(O)c1cc2ccccc2cc1CO (stereo not given) | 70
CC(C)CCC(C)(C#N)N=NC(C)(C#N)CCC(C)C (stereo not given) | 56 to 58
C=C(CC(C)C)C(=O)NCCCCCC(N)=O | 76 to 82
COCOc1cc(C(=O)OC)[nH]n1 | 54 to 55
COCOc1c(OC)cc(/C=C/C(=O)/C=C/c2cc(OC)c(OCOC)c(OC)c2)cc1OC | 146 to 148
O=C(Nc1ncco1)C1c2ccccc2Sc2ccccc21 | 188 to 191
C#Cc1ccc2c(c1)C(c1ccccc1)=NCc1c(C(=O)NC)ncn1-2 | 237 to 238
CN(C)c1ccc(C=CC(=O)c2ccc3c(c2)CCC3)cc1 | 106 to 108
Cc1[nH]c2ccc(Br)cc2c1Cc1cccnc1 | 188 to 190
Cc1ccc(C2c3c(cc(C)c(Br)c3C)OC2(C)C)cc1 (stereo not given) | 116 to 118
CCN(CC)C(=O)n1cnc(SCC2CC2)n1 | 51 to 52
COC(=O)[C@H]1CC[C@H](n2cnn(-c3ccc(C4CCN(C(=O)C(F)(F)F)CC4)cc3)c2=O)CC1 | 184 to 186
O=C1CCCN1[C@H]1CC[C@@H](C(=O)O)CC1 | 188
[N-]=[N+]=NC1CC(n2cc(I)c(=O)[nH]c2=O)OC1CO (stereo not given) | 126 to 130
O=C(N1Cc2ccccc2Nc2ccccc21)C(F)(F)F | 140 to 141
O=C(CO)c1ccc(C(F)(F)F)cc1 | 112 to 114
CCOC(=O)CCN(C1(C(=O)O)CCCC1)S(=O)(=O)c1ccc(Oc2ccc(F)cc2)cc1 | 164 to 166

Compound | melting point [°C]
N#CCCn1cccc1-c1ccc2cnc(Nc3cccc(N4CCCC4=O)c3)nn12 | 60 to 67
CC(=CN=Cc1ccccc1Cl)c1cccs1 | 102
COc1cccc(-c2csc(-c3cccc([N+](=O)[O-])c3)n2)c1 | 122 to 123
Oc1ccc(-c2nnc(Cc3ccc(Oc4ccccc4)cc3)o2)cc1 | 202 to 203
COC(=O)c1ccc(CN2CCN(C(=O)c3cc(C(F)(F)F)cc(C(F)(F)F)c3)[C@H](Cc3c[nH]c4ccccc34)C2)cc1 | 75 to 78
CSC(=NCCN(C)C)NC#N | 94 to 95
Cc1cccc(-n2nnc3cccnc32)n1 | 144 to 145
O=Cc1c2n(c3cc4c(cc13)OCO4)CCC2 | 169 to 170
O=C1NCCN(N=Cc2ccco2)C1=O | 193 to 197
COc1ccc2c(ccn2CC2(c3ccccc3Br)OCCO2)n1 | 143 to 144
CCn1ncc2c(NCc3ccco3)c3ccccc3nc21 | 156 to 158
O=C1CCC(c2ccc3c(c2)C2(CC2)C(=O)N3)=NN1 | 256 to 257
Nc1nc2ccccc2c2c1ncn2CCCCNC(=O)[C@@H]1C[C@H]1c1ccccc1 (relative stereo) | 77
O=C(Nc1cccc(S(=O)(=O)NC2CC2)c1)c1cnn2c(C(F)F)cc(-c3ccc(C(F)(F)F)cc3)nc12 | 252
c1ccc(-c2ccc3c(c2)CCN(Cc2c[nH]c4ncccc24)C3)cc1 | 211 to 213
COc1c(C=O)c(=O)n(C)c(=O)n1C | 105 to 107
N#Cc1ccc(-n2c(=O)cc(C(F)(F)F)[nH]c2=O)cc1[N+](=O)[O-] | 135
O=C(Nc1cccnc1)N1CCN(c2nccc(-c3c(F)cccc3F)n2)CC1 | 185 to 186
Fc1cc(Cl)c(OCC2=CCCOC2)cc1-n1nc2c(c1Cl)CCCC2 | 90 to 92
COc1cc(Nc2c(C#N)cnc3cc(-c4cc5ccccc5o4)ccc23)c(Cl)cc1Cl | 276 to 277

Compound | melting point [°C]
COc1cn(-c2cccc3c2OC(F)(F)O3)nc(-c2ccnn2-c2ccccc2)c1=O | 181 to 183
COc1cc2c3c(c1)c(CCN1CCN(c4cc(C)ccn4)CC1)c(C)n3CCC2 | 104
CC[C@H]1[C@H](O)CC(=O)N1c1ccc(C#N)c(OC)c1 | 138 to 141
O=Cc1c(O)cc(O)cc1CCl | 164 to 166
CCOC(=NC(=O)c1cc(C(F)(F)F)cc(C(F)(F)F)c1)N1Cc2ccccc2-c2ccccc2C1 | 129 to 130
O=[N+]([O-])c1ccc2nc(CCCCCCCCc3nc4ccc([N+](=O)[O-])cc4[nH]3)[nH]c2c1 | 135 to 137
CC(=O)OC1CCC2(C)C(=CC(=NO)C3C2CCC2(C)C(OC(C)=O)CCC32)C1 (stereo not given) | 236 to 238
COc1cc2cc3c(Nc4ccc(OCc5ccccc5)c(Cl)c4)c(C#N)cnc3cc2cc1OCCCl | 182 to 185
O=Cc1c(Cl)nc(-c2ccccc2)n1Cc1ccc(Br)cc1 | 92 to 95
COCCOc1ncnc2[nH]ccc12 | 137 to 139
O=C(NNC(=O)c1ccc([N+](=O)[O-])cc1)c1ccc([N+](=O)[O-])cc1 | 294
CC1(C)Cc2cc(C(=O)O)sc2C1 | 170 to 172
Cc1cc(-c2c3ccccc3c(Br)c3sc(C)c(C)c23)cc(C)c1OS(=O)(=O)c1ccc(C(=O)OC(C)(C)C)c(O)c1 | 168 to 172
O=Cc1cc(O)c(O)c(C(F)(F)F)c1 | 188 to 192
O=C(O)CC1CCCc2c1n(Cc1ccc(F)cc1)c1c(F)cc(F)cc21 (stereo not given) | 195 to 196
O=C(O)c1ccc2c(-c3ccccc3)c([N+](=O)[O-])oc2c1 | 244 to 247
Nc1nc2c(s1)CCN(CC=Cc1cccc3ccccc13)CC2 | 178 to 180
OC1CSC(Oc2ccc(Cl)nc2)C(O)C1O (stereo not given) | 218
Cc1cc(CCCCCOc2c(Cl)cc(C3=NCCO3)cc2Br)on1 | 41 to 42

Next, values leading:

melting point [°C] | Compound
203 to 231 | O=C(Nc1ccc(C(=O)N2Cc3ccccc3Cc3ccccc32)cc1)c1cc(Cl)ccc1Cl
189 | CCOC(=O)NC1=NN(c2cccc(Cl)c2)C(=O)C1
142 to 145 | OC1(c2ccc(Cl)cc2)CCN(CCCc2noc3cc(F)ccc23)CC1
152 to 154 | CN(C)C(=S)SC(c1ccc(Cl)cc1Cl)C(C(c1ccc(Cl)cc1Cl)N(C)C)[N+](=O)[O-] (stereo not given)
105 to 107 | CCOC(=O)CCn1ccn([C@H]2CCc3c(F)cc(F)cc3C2)c1=S
148 to 149 | CCN1c2ncc([N+](=O)[O-])cc2C(=O)N(C)c2cccnc21
252 to 255 | CC(=O)N1CCC2(CC1)CSC1=C(O2)c2ccccc2C(=O)C1=O
110 to 112 | CCOC(=O)c1nn(-c2ccccc2)c2c1Cc1ccccc1-2
165 to 170 | Cc1c(C(N)=O)c(C(F)(F)F)nn1-c1c(Cl)cc(C(F)(F)F)cc1Cl
200 to 203 | CN1CCN(C2=Nc3cc(Cl)ccc3Nc3nn(C)nc32)CC1
104 to 106 | O=Cc1ccc(OCCn2ncc3ccccc3c2=O)cc1
106 to 108 | COc1cccc(Cn2c(=O)c3c(Cl)cc(Cl)cc3n(Cc3ccccc3)c2=O)c1
105 to 106 | Cc1ccc(C(=O)N2CCN(CCc3ccc(Cl)cc3)CC2)cc1
207 to 209 | O=C(Cc1ccc(Cl)cc1)Nc1cc(CC2SC(=O)NC2=O)ccc1O (stereo not given)
173 to 174 | O=C(O)c1cc(S(=O)(=O)N2CCCC(OCc3ccccc3)C2)ccc1Cl (stereo not given)
195 to 196 | CCOC(=O)CCCn1c2c(c(=O)n3nc(-c4ccccc4)cc13)CN(C1CCCCC1)C2=O
120 to 121 | CCc1ccc(S(=O)(=O)CC#N)cc1
135 to 136 | O=CCCCCC(c1cc(F)ccc1F)S(=O)(=O)c1ccc(Cl)cc1 (stereo not given)
191 to 192 | C#CCN(c1ccc(C(=O)OC(C)(C)C)cc1)C1CCc2cc3nc(COC)[nH]c(=O)c3cc21 (racemic)
208 | Cc1oncc1C(=O)N1CCN(c2ccc(NC(=O)c3cnn(-c4ccc(F)cc4)c3C)cc2C#N)CC1
252 to 253 | CN1CCN(c2cc3c(cc2F)c(=O)c(C(=O)O)cn3NCC=O)CC1

melting point [°C] | Compound
66 to 68 | CCCc1c(OCCCSc2ccc(C(=O)OC)cn2)ccc(C(C)=O)c1O
121 to 122 | CCC(CC)n1nc(-c2ccc(O)cc2O)c2cccc(C(F)(F)F)c21
200 to 202 | COC(=O)/C=C/c1ccc(/C=C/c2csc(NC(C)=O)n2)s1
210 | CCOc1cc(N)c([N+](=O)[O-])cc1C(=O)OC
181 to 183 | CCOC(=O)c1ncc2[nH]c3ccccc3c2c1CCOC
175 | CCCCOc1ccc(S(=O)(=O)C2(C(=O)O)CCN(Cc3cccc(OC)c3)CC2)cc1
232 | CC(C)(C)c1cc(C=C2SCN(CC(N)=O)C2=O)cc(C(C)(C)C)c1O
140 to 142 | CCOC(=O)C1=C(C)NC(c2cscn2)=NC1c1cccc(OC)c1 (stereo not given)
154 to 155 | CC(C)N(CCN1C(=O)/C(=N/NC(N)=O)c2cc(Cl)ccc21)C(C)C
257 to 258 | COc1c(N2CCCC2)c(F)cc2c(=O)c(C(=O)O)cn(C3CC3)c12
180 to 185 | CC(C)c1cc2n(Cc3ccccc3)cc(C(=O)O)c(=O)n2n1
97 to 99 | COc1ccc([C@@H]2OC(=O)[C@H](C)N2C(=O)OCc2ccccc2)cc1
180 to 182 | CC(C)(C)[C@H]1CC[C@H](CC2=C(O)C(=O)c3ccccc3C2=O)CC1
148 to 149 | CSc1[nH]c(-c2ccccc2C)cc1C#N
186 to 189 | CC(C(N)=O)C(O)(Cn1cncn1)c1ccc(Cl)cc1 (stereo not given)
239 | COC(=O)c1ccc(NC(=O)C(F)(F)F)c(C(=O)OC)c1
126 to 128 | CCCCc1nc(Cl)c(COC)n1Cc1ccc(C(=O)O)cc1
46 to 47 | CCOC(=O)c1cccc(-c2ccc3c(n2)C(O)CC3)c1 (stereo not given)
83 to 85 | CC(C)CC(NC(=O)Cc1ccc(NC(=O)Nc2ccccc2F)cc1)c1ncc(CCC(=O)O)s1 (stereo not given)
95 to 96 | COC(=O)CCc1oc(-n2ccnc2)nc1-c1ccc(Cl)cc1

From a melting point compilation (Tetko et al.; mined from patent text by program, amines drawn as free bases though some values may be those of a salt)
